Here are results for 20 compounds from PubChem BioAssay AID330 (DTP/NCI, 2004).

Values joined by “and” are separate entries in the source; they are usually repeats but may differ in a detail not shown here. Identical values can stand only once. Toxic doses and inconclusive results are not listed. Peptide text beside a SMILES is read from it. * marks the point of attachment. Boc = CC(C)(C)OC(=O)*

The test system of the assay is P388 leukemia ip, CD2F1 mice, survival T/C. Put plainly: NCI In Vivo Anticancer Drug Screen. Data for tumor model P388 Leukemia (intraperitoneal) in CD2F1 (CDF1) mice. The conditions noted are these: endpoint: median survival time, higher = longer survival. Put shortly: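 Mice carrying the transplanted tumor received test compound or vehicle. Survival was recorded in each group, and the value is the treated-group measurement divided by that of the vehicle-treated control group.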

[1] abbreviates: dose: 60.0 mg/kg/injection, schedule: Q01DX005 (ip), vehicle: saline with Tween-80.
Setting [2] is: dose: 120.0 mg/kg/injection, schedule: Q01DX005 (ip), vehicle: saline with Tween-80.
Where [3] appears, read: dose: 240.0 mg/kg/injection, schedule: Q01DX005 (ip), vehicle: saline with Tween-80.
The mark [4] stands for this setting: dose: 50.0 mg/kg/injection, schedule: Q01DX005 (ip), vehicle: Klucel (hydroxypropylcellulose) (HPC).
Where [5] appears, read: dose: 100.0 mg/kg/injection, schedule: Q01DX005 (ip), vehicle: Klucel (hydroxypropylcellulose) (HPC).
Setting [6] is: dose: 200.0 mg/kg/injection, schedule: Q01DX005 (ip), vehicle: Klucel (hydroxypropylcellulose) (HPC).
Where [7] appears, read: dose: 50.0 mg/kg/injection, schedule: Q01DX009 (ip), vehicle: saline with Tween-80.
The mark [8] stands for this setting: dose: 100.0 mg/kg/injection, schedule: Q01DX009 (ip), vehicle: saline with Tween-80.
[9] abbreviates: dose: 200.0 mg/kg/injection, schedule: Q01DX009 (ip), vehicle: saline with Tween-80.
[10] abbreviates: dose: 50.0 mg/kg/injection, schedule: Q01DX009 (ip), vehicle: water.
Where [11] appears, read: dose: 100.0 mg/kg/injection, schedule: Q01DX009 (ip), vehicle: water.
The mark [12] stands for this setting: dose: 200.0 mg/kg/injection, schedule: Q01DX009 (ip), vehicle: water.

In the case of `CN(N=O)C(=O)N[C@@H](C=O)[C@@H](O)[C@H](O)[C@H](O)CO`, the T/C was 105 % of control and 106 % of control (dose: 31.25 mg/kg/injection, schedule: Q01DX001 (ip), vehicle: other); 105 % of control and 109 % of control (dose: 62.5 mg/kg/injection, schedule: Q01DX001 (ip), vehicle: other); 110 % of control (dose: 80.0 mg/kg/injection, schedule: Q04DX003 (ip), vehicle: citric acid); 108 % of control (dose: 80.0 mg/kg/injection, schedule: Q04DX003 (ip), vehicle: other); 107 % of control and 114 % of control (dose: 120.0 mg/kg/injection, schedule: Q04DX003 (ip), vehicle: other); 111 % of control and 117 % of control (dose: 125.0 mg/kg/injection, schedule: Q01DX001 (ip), vehicle: other). Besides, the T/C (dose: 180.0 mg/kg/injection, schedule: Q04DX003 (ip), vehicle: citric acid) was 119 % of control; the T/C (dose: 180.0 mg/kg/injection, schedule: Q04DX003 (ip), vehicle: other) is 118 % of control and 122 % of control; the T/C (dose: 240.0 mg/kg/injection, schedule: Q04DX003 (ip), vehicle: other) is 112 % of control and 120 % of control; the T/C (dose: 500.0 mg/kg/injection, schedule: Q01DX001 (ip), vehicle: other) was 90 % of control.
Regarding `CC(=O)OCNCOC(C)=O`, the T/C reads like this: (dose: 100.0 mg/kg/injection, schedule: Q01DX009 (ip), vehicle: saline) 106 % of control; (dose: 200.0 mg/kg/injection, schedule: Q01DX009 (ip), vehicle: saline) 108 % of control; (dose: 400.0 mg/kg/injection, schedule: Q01DX009 (ip), vehicle: saline) 106 % of control.
`COc1ccc(C)cc1NC(=O)ON=C1CCCCC1`: the T/C is 95 % of control under setting [1], 94 % of control under setting [2] and 100 % of control under setting [3].
Regarding `C=C1C[C@]23C[C@H](O)[C@]4(O)[C@@]5(C)C[C@H](O)C[C@]46C(C2[C@@H]1[C@@H](OC(=O)/C(C)=C/C)[C@@H](OC(=O)/C(C)=C/C)[C@H]36)N(C)C5` (stereo partly drawn), the T/C is, setting by setting: (dose: 0.5 mg/kg/injection, schedule: Q01DX005 (ip), vehicle: saline + alcohol) 102 % of control; (dose: 1.0 mg/kg/injection, schedule: Q01DX005 (ip), vehicle: saline + alcohol) 105 % of control and 106 % of control; (dose: 2.0 mg/kg/injection, schedule: Q01DX005 (ip), vehicle: saline + alcohol) 105 % of control and 109 % of control; (dose: 4.0 mg/kg/injection, schedule: Q01DX005 (ip), vehicle: saline + alcohol) 103 % of control and 109 % of control; (dose: 8.0 mg/kg/injection, schedule: Q01DX005 (ip), vehicle: saline + alcohol) 103 % of control.
Consider `CCOC(=O)C(CCC(=O)O)NC(=O)C(CCSC)NC(=O)OC(C)(C)C` (stereo not drawn) (Boc-Met-Glu-OEt; configuration not given here), for which the T/C is 102 % of control under setting [4], 102 % of control under setting [5] and 97 % of control under setting [6].
Regarding `COC(=O)c1c(C)oc(C)c1-c1ccc(OCc2ccccc2)c(OC)c1`, the T/C (dose: 60.0 mg/kg/injection, schedule: Q01DX005 (ip), vehicle: Klucel (hydroxypropylcellulose) (HPC)) is 114 % of control; the T/C (dose: 120.0 mg/kg/injection, schedule: Q01DX005 (ip), vehicle: Klucel (hydroxypropylcellulose) (HPC)) is 98 % of control; the T/C (dose: 240.0 mg/kg/injection, schedule: Q01DX005 (ip), vehicle: Klucel (hydroxypropylcellulose) (HPC)) was 94 % of control.
In the case of `Cc1cc(N)c([N+](=O)[O-])cc1C`, the T/C under setting [7] is 101 % of control; the T/C under setting [8] was 100 % of control; the T/C under setting [9] was 96 % of control; the T/C (dose: 400.0 mg/kg/injection, schedule: Q01DX009 (ip), vehicle: saline with Tween-80) was 95 % of control.
On to `COc1cc2c(c3c1c(=O)c1cccc(F)c1n3C)C=CC(C)(C)O2`, for which the T/C runs as follows: (dose: 25.0 mg/kg/injection, schedule: Q01DX005 (ip), vehicle: Klucel (hydroxypropylcellulose) (HPC)) 113 % of control; under setting [4], 109 % of control and 110 % of control; under setting [5], 120 % of control.
Turning to `O=C(NC(c1ccccc1)N1CCOCC1)c1ccccc1` (stereo not drawn), the T/C runs as follows: (dose: 50.0 mg/kg/injection, schedule: Q01DX005 (ip), vehicle: Klucel + Tween-80) 108 % of control; (dose: 100.0 mg/kg/injection, schedule: Q01DX005 (ip), vehicle: Klucel + Tween-80) 112 % of control; (dose: 200.0 mg/kg/injection, schedule: Q01DX005 (ip), vehicle: Klucel + Tween-80) 114 % of control.
Turning to `O=C(NC(=NC(=Nc1ccc(Cl)cc1)c1ccccc1)c1ccccc1)c1ccccc1`, the T/C is, setting by setting: under setting [7], 92 % of control; under setting [8], 95 % of control; under setting [9], 99 % of control.
The corresponding values for `CC1(c2ccc3c(c2)OCO3)OC(CCl)CS1` (stereo not drawn) are 101 % of control, 101 % of control and 101 % of control.
On to `CN(C)C(CC(N)=O)C(=O)O` (stereo not drawn), for which the T/C is, setting by setting: under setting [10], 101 % of control; under setting [11], 102 % of control; under setting [12], 97 % of control.
Regarding `O=C1C=CC(Cc2ccccc2)N1C(=O)c1ccccc1` (stereo not drawn), the T/C runs as follows: (dose: 50.0 mg/kg/injection, schedule: Q01DX005 (ip), vehicle: saline with Tween-80) 99 % of control; (dose: 100.0 mg/kg/injection, schedule: Q01DX005 (ip), vehicle: saline with Tween-80) 100 % of control; (dose: 200.0 mg/kg/injection, schedule: Q01DX005 (ip), vehicle: saline with Tween-80) 97 % of control.
Turning to `Cc1ccccc1NC(=O)Oc1ccc(Cl)cc1C(=O)c1ccccc1`, the T/C under setting [1] is 100 % of control, the T/C under setting [2] is 109 % of control and the T/C under setting [3] is 103 % of control.
Turning to `C=CC(C)(C)C12Oc3c(ccc(OC)c3OC)C1=COc1cc(O)ccc12` (stereo not drawn), the T/C is 101 % of control (dose: 100.0 mg/kg/injection, schedule: Q01DX001 (ip), vehicle: Klucel (hydroxypropylcellulose) (HPC)); 105 % of control (dose: 200.0 mg/kg/injection, schedule: Q01DX001 (ip), vehicle: Klucel (hydroxypropylcellulose) (HPC)); 97 % of control (dose: 400.0 mg/kg/injection, schedule: Q01DX001 (ip), vehicle: Klucel (hydroxypropylcellulose) (HPC)).
With `O=C(O)CSc1nc(-c2ccccc2)c(-c2ccccc2)n1-c1ccccn1`, the T/C reads like this: (dose: 25.0 mg/kg/injection, schedule: Q01DX009 (ip), vehicle: water) 103 % of control and 124 % of control; under setting [10], 108 % of control and 97 % of control; under setting [11], 118 % of control and 122 % of control and 86 % of control; under setting [12], 115 % of control and 86 % of control.
For `CCCCN(CCC#N)C(N)=O`, the T/C is, setting by setting: under setting [4], 100 % of control; under setting [5], 100 % of control; under setting [6], 100 % of control.
As for `COc1ccc(C(=O)C(CN2CCOCC2)CN2CCOCC2)cc1`, the T/C was 96 % of control (dose: 60.0 mg/kg/injection, schedule: Q01DX005 (ip), vehicle: saline) and 111 % of control (dose: 120.0 mg/kg/injection, schedule: Q01DX005 (ip), vehicle: saline).
`CCC1(O)CC2CN(CCc3c([nH]c4ccccc34)C(C(=O)OC)(c3cc4c(cc3OC)N(C)C3C(O)(C(=O)NCCO)C(O)C5(CC)C=CCN6CCC43C65)C2)C1` (stereo not drawn): the T/C is, setting by setting: (dose: 0.13 mg/kg/injection, schedule: Q01DX009 (ip), vehicle: water) 105 % of control; (dose: 0.2 mg/kg/injection, schedule: Q01DX009 (ip), vehicle: saline) 150 % of control; (dose: 0.22 mg/kg/injection, schedule: Q01DX009 (ip), vehicle: water) 117 % of control; (dose: 0.36 mg/kg/injection, schedule: Q01DX009 (ip), vehicle: water) 122 % of control; (dose: 0.4 mg/kg/injection, schedule: Q01DX009 (ip), vehicle: saline) 167 % of control; (dose: 0.6 mg/kg/injection, schedule: Q01DX009 (ip), vehicle: water) 153 % of control. The T/C (dose: 0.63 mg/kg/injection, schedule: Q04DX003 (ip), vehicle: saline) is 183 % of control; the T/C (dose: 0.8 mg/kg/injection, schedule: Q01DX009 (ip), vehicle: saline) was 96 % of control; the T/C (dose: 1.0 mg/kg/injection, schedule: Q01DX009 (ip), vehicle: water) is 104 % of control; the T/C (dose: 1.25 mg/kg/injection, schedule: Q04DX003 (ip), vehicle: saline) was 223 % of control; the T/C (dose: 2.5 mg/kg/injection, schedule: Q04DX003 (ip), vehicle: saline) was 274 % of control.
Consider `O=c1c2cc3c(=O)n(CO)c(=O)c3cc2c(=O)n1CO`, for which the T/C by setting is: under setting [1], 118 % of control; under setting [2], 120 % of control; under setting [3], 121 % of control.
